Consider 18 molecules from patent US20100160349A1, “TRIAZOLOPYRIMIDINE DERIVATIVES AS GLYCOGEN SYNTHASE KINASE 3 INHIBITORS” (priority 2005, published 2010).

Where a name gives a salt, the structure may show the parent alone.

One data set has as its target GSK3β (Homo sapiens, UniProt P49841). Description: GSK3beta assay (SPA, biotinylated phosphorylated CREB peptide, ATP-P33). It counts as biochemical. The settings on record: −log IC50 (M); reported as ranges; 5.7 ng/μl GSK3β, 1 μM ATP, room temperature, one hour; read-out: pIC50 (GSK3beta) (converted). Here is the method:
(§1) GSK3beta assays were performed at room temperature in a 100 μl reaction volume of 25 mM Tris (pH 7.4) containing 10 mM MgCl2.6H2O, 1 mM DTT, 0.1 mg/ml BSA, 5% glycerol and containing 5.7 ng/μl GSK3β, 5 μM biotinylated phosphorylated CREB peptide, 1 μM ATP, 0.85 μCi/ml ATP-P^33 and a suitable amount of a test compound of formula (I). After one hour, the reaction was terminated by adding 70 μl of Stop mix (0.1 mM ATP, 5 mg/ml streptavidin coated PVT SPA bead pH 11.0). The beads to which the phosphorylated CREB peptide is attached were allowed to settle overnight and the radioactivity of the beads was counted in a microtiterplate scintillation counter and compared with the results obtained in a control experiment (without the presence of a test compound) in order to determine the percentage of GSK3β inhibition. The IC50 value, i.e. the concentration (M) of the test compound at which 50% of GSK3β is inhibited, was calculated from the dose response curve obtained by performing the above-described GSK3β assay in the presence of different amounts of the test compound.

Another data set addresses GSK3alpha (Homo sapiens, UniProt P49840). Description: GSK3alpha assay (same way as the GSK3beta assay). It counts as biochemical. The settings on record: −log IC50 (M); reported as ranges; 0.25 ng/μl GSK3alpha, 1 μM ATP, room temperature, one hour; read-out: pIC50 (GSK3alpha) (converted). On the procedure: as §1
The GSK3alpha assay was performed in the same way as described above for the GSK3beta assay except for the concentration of GSK3alpha which is 0.25 ng/μl.

Sequence of GSK3alpha (P49840 whole entry, species assumed): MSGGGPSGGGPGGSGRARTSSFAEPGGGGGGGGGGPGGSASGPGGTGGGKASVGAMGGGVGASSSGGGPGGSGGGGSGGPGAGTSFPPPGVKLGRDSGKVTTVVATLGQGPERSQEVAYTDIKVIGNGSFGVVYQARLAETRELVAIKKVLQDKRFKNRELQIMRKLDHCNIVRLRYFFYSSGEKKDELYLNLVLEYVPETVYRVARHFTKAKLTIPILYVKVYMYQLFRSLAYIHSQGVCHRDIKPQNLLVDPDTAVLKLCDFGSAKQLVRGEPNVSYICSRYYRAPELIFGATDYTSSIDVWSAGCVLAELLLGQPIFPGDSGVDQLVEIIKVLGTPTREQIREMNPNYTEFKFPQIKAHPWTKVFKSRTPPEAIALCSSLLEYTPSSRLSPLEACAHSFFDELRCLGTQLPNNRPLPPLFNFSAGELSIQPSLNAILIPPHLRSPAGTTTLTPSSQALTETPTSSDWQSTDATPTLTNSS
Sequence of GSK3β (P49841 whole entry, species assumed): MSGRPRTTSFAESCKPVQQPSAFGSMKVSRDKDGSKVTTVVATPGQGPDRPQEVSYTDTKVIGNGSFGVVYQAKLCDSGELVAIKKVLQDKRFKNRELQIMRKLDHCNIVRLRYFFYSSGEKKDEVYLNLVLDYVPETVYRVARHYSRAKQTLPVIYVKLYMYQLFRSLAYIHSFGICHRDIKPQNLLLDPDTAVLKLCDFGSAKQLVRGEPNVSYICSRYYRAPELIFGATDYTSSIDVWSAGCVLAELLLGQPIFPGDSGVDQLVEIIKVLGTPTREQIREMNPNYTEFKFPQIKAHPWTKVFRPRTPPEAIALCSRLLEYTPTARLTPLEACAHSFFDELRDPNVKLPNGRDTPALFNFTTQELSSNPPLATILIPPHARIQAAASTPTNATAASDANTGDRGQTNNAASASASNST

In turn, `NCc1cccc(-n2nnc3cnc(Nc4ccccc4)nc32)c1` (as salt: HCl) [Co. No. 9] displayed a melting point of more than 260 °C.

Take `N#CCc1cccc(-n2nnc3cnc(Nc4ccccc4)nc32)c1` [Co. No. 1]: the melting point was in the range of 218 to 222 °C. Also, the IC50 at GSK3β was less than 1e-08 M. Besides, the IC50 at GSK3alpha was less than 1e-08 M.

On to `COCCOCc1cccc(-n2nnc3cnc(Nc4ccccc4)nc32)c1` [Co. No. 2], for which the melting point was 143 °C. In addition, the IC50 on GSK3β is less than 1e-08 M. Moreover, at GSK3alpha, the IC50 is less than 1e-08 M.

Turning to `COCCOc1cccc(-n2nnc3cnc(Nc4ccccc4)nc32)c1` [Co. No. 3], the melting point came out at 164 °C. For the same molecule, the IC50 on GSK3β is 1e-08 to 1e-07 M. At GSK3alpha, the IC50 was less than 1e-08 M.

For the molecule `c1ccc(Nc2ncc3nnn(-c4ccccc4)c3n2)cc1` [Co. No. 4], the melting point was 194 to 198 °C. The IC50 at GSK3β was 1e-08 to 1e-07 M. Also, the IC50 on GSK3alpha is 1e-08 to 1e-07 M.

With `CC(C)(C)OC(=O)NCc1cccc(-n2nnc3cnc(Nc4ccccc4)nc32)c1` [Co. No. 5], the melting point is 196 to 198 °C. Further, the IC50 on GSK3β is less than 1e-08 M. The IC50 at GSK3alpha was less than 1e-08 M.

Take `O=C(NCc1cccc(-n2nnc3cnc(Nc4ccccc4)nc32)c1)C12CC3CC(CC(C3)C1)C2` [Co. No. 6]: the IC50 at GSK3β and at GSK3alpha was more than 1e-07 M in each case.

Turning to `CC(C)CC(=O)NCc1cccc(-n2nnc3cnc(Nc4ccccc4)nc32)c1` [Co. No. 7], the IC50 at GSK3β and at GSK3alpha was less than 1e-08 M throughout.

`O=C(O)Cc1cccc(-n2nnc3cnc(Nc4ccccc4)nc32)c1` [Co. No. 8]: the melting point was determined as 241 °C. Besides, on GSK3β, the IC50 was more than 1e-07 M. Further, the IC50 on GSK3alpha is 1e-08 to 1e-07 M.

Consider `NCc1cccc(-n2nnc3cnc(Nc4ccccc4)nc32)c1` [Co. No. 9], for which the figures for the IC50 on GSK3β and at GSK3alpha were 1e-08 to 1e-07 M and less than 1e-08 M, respectively.

Regarding `OCCc1cccc(-n2nnc3cnc(Nc4ccccc4)nc32)c1` [Co. No. 10], the IC50 at GSK3β and at GSK3alpha was less than 1e-08 M in each case.

Regarding `COCc1cccc(-n2nnc3cnc(Nc4ccccc4)nc32)c1` [Co. No. 11], the IC50 on GSK3β and on GSK3alpha was less than 1e-08 M each time.

Turning to `CC(=O)NCc1cccc(-n2nnc3cnc(Nc4ccccc4)nc32)c1` [Co. No. 12], the figures for the IC50 on GSK3β and at GSK3alpha were not above 1e-08 M and less than 1e-08 M, respectively.

As for `Fc1cccc(-n2nnc3cnc(Nc4ccccc4)nc32)c1` [Co. No. 13], the IC50 at GSK3alpha was 1e-08 to 1e-07 M.

As to `O=C(NCc1cccc(-n2nnc3cnc(Nc4ccccc4)nc32)c1)C1CC1` [Co. No. 14], on GSK3alpha, the IC50 is more than 1e-06 M.

Regarding `CCOC(=O)NCc1cccc(-n2nnc3cnc(Nc4ccccc4)nc32)c1` [Co. No. 15], the IC50 at GSK3β and on GSK3alpha was less than 1e-08 M in each case.

Take `OCCc1ccc(-n2nnc3cnc(Nc4ccccc4)nc32)cc1` [Co. No. 16]: the IC50 on GSK3β and at GSK3alpha was 1e-08 to 1e-07 M throughout.

On to `NC(=O)Cc1cccc(-n2nnc3cnc(Nc4ccccc4)nc32)c1` [Co. No. 17], for which the IC50 on GSK3β and at GSK3alpha was less than 1e-08 M each time.

One may read the melting point as the temperature, or range, at which the solid turns liquid.
